Laboratory results from ChEMBL document CHEMBL1144095, “A new labdane diterpenoid from Renealmia alpinia collected in the Suriname rainforest” (1999).

Test system: Saccharomyces cerevisiae
Experiment: Antifungal activity against Saccharomyces cerevisiae
Type: functional

C=C1CC[C@H]2C(C)(C)CCC[C@]2(C)[C@H]1CC1OC(O)C=C1C(=O)O (stereo partly specified)
IC12: 150 µg/mL
